Bounds are passed on as bounds.

This note sets out measurements from patent US10336762B2 (priority 2017, dated 2019).

For one assay, the system named is TNFα. Nature of the assay: cells. The assay is classed as cell-based, human. Particulars: Homo sapiens, Monocyte, LPS-stimulated human monocytes, TNFα content; read-out: EC50 TNF.
The target of the next assay is IRAK4 enzyme (Homo sapiens (Human), UniProt Q9NWZ3). In words: biochemical. The assay is classed as biochemical. Particulars: IRAK4 enzyme, TR-FRET (HTRF), 500 μM ATP. (In TR-FRET formats the signal depends on donor and acceptor labels being close together.)
Sequence of IRAK4 enzyme (Q9NWZ3 whole entry): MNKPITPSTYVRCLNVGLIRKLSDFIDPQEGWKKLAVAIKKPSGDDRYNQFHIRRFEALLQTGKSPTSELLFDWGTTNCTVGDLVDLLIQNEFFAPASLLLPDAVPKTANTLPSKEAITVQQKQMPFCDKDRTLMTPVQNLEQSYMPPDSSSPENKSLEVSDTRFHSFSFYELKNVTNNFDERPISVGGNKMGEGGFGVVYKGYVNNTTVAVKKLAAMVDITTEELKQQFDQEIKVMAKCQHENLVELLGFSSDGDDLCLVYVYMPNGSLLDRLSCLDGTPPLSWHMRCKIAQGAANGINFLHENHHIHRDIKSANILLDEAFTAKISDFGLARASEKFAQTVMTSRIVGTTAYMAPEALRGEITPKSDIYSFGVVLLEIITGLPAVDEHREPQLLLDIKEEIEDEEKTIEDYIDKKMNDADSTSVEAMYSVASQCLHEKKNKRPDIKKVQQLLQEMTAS

Consider `N#Cc1cnn2c(-c3cc(NC45CCC(O)(CC4)CC5)c(C(=O)NCC4(CO)COC4)cn3)ccc2c1` [Example 711, 6-(3-cyanopyrrolo[1,2-b]pyridazin-7-yl)-4-((4-hydroxybicyclo[2.2.2]octan-1-yl)amino)-N-((3-(hydroxymethyl)oxetan-3-yl)methyl)nicotinamide], for which, in the assay with TNFα, the EC50 turned out to be 231 nM. Half-maximal inhibition against IRAK4 enzyme (IC50) required 2 nM.

With `CC(C)Nc1cc(-c2ccc3cc(C#N)cnn23)ncc1C(=O)NCCC(O)C(F)(F)F` (stereo not drawn) [Example 712, 6-(3-cyanopyrrolo[1,2-b]pyridazin-7-yl)-4-(isopropyl-amino)-N-(4,4,4-trifluoro-3-hydroxybutyl)nicotinamide], in the assay on TNFα, the EC50 was 47 nM. In addition, the IC50 against IRAK4 enzyme was less than 1 nM.

`COCC1CCC1CNc1cc(-c2ccc3cc(C#N)cnn23)ncc1C(=O)NC[C@@H](F)C(C)(C)O` (stereo partly drawn) [Example 713, 6-(3-cyanopyrrolo[1,2-b]pyridazin-7-yl)-N-((R)-2-fluoro-3-hydroxy-3-methyl-butyl)-4-(((2-(methoxy-methyl)cyclobutyl)methyl)amino)nicotinamide]: the EC50 with TNFα is 264 nM. The compound further returned an IC50 on IRAK4 enzyme of 2 nM.

Regarding `CC(C)(O)[C@H](F)CNC(=O)c1cnc(-c2ccc3cc(C#N)cnn23)cc1N[C@H]1C[C@H](CN2CCOC2=O)C1` [Example 714, 6-(3-cyanopyrrolo[1,2-b]pyridazin-7-yl)-N-((R)-2-fluoro-3-hydroxy-3-methylbutyl)-4-(((1r,3R)-3-((2-oxooxazolidin-3-yl)methyl)cyclobutyl)amino)nicotinamide], in the assay on TNFα, the EC50 was determined as 35 nM. On IRAK4 enzyme, this compound returned an IC50 of less than 1 nM.

On to `CC(C)(O)[C@H](F)CNC(=O)c1cnc(-c2ccc3cc(C#N)cnn23)cc1N[C@H]1CC[C@H](CN2CCOC2=O)CC1` [Example 715, 6-(3-cyanopyrrolo[1,2-b]pyridazin-7-yl)-N-((R)-2-fluoro-3-hydroxy-3-methylbutyl)-4-(((1r,4R)-4-((2-oxooxazolidin-3-yl)methyl)cyclohexyl)amino)nicotinamide], for which the concentration giving a half-maximal response (EC50) in the assay with TNFα came out at 57 nM. This compound also gave an IC50 against IRAK4 enzyme of 1 nM.

In the case of `COC(=O)NCCCNc1cc(-c2ccc3cc(C#N)cnn23)ncc1C(=O)NC[C@@H](F)C(C)(C)O` [Example 716, (R)-methyl (3-((2-(3-cyanopyrrolo[1,2-b]pyridazin-7-yl)-5-((2-fluoro-3-hydroxy-3-methylbutyl)carbamoyl)pyridin-4-yl)amino)propyl)carbamate], the EC50 in the assay with TNFα was 55 nM. Besides, at IRAK4 enzyme, the IC50 was less than 1 nM.

For `COC(=O)NCCCCNc1cc(-c2ccc3cc(C#N)cnn23)ncc1C(=O)NC[C@@H](F)C(C)(C)O` [Example 717, (R)-methyl (4-((2-(3-cyano-pyrrolo[1,2-b]pyridazin-7-yl)-5-((2-fluoro-3-hydroxy-3-methylbutyl)carbamoyl)pyridin-4-yl)amino)butyl) carbamate], the EC50 in the assay on TNFα came out at 66 nM. The compound also had an IC50 at IRAK4 enzyme of less than 1 nM.

For the compound `COC(=O)NCC(C)(C)CNc1cc(-c2ccc3cc(C#N)cnn23)ncc1C(=O)NC[C@@H](F)C(C)(C)O` [Example 718, (R)-methyl (3-((2-(3-cyano-pyrrolo[1,2-b]pyridazin-7-yl)-5-((2-fluoro-3-hydroxy-3-methylbutyl)carbamoyl)pyridin-4-yl)amino)-2,2-dimethylpropyl)carbamate], the EC50 in the assay on TNFα was 280 nM. This compound gave an IC50 against IRAK4 enzyme of 2 nM.

Turning to `CC(C)(O)[C@H](F)CNC(=O)c1cnc(-c2ccc3cc(C#N)cnn23)cc1Nc1ccc(Cn2ccccc2=O)cc1` [Example 719, (R)-6-(3-cyanopyrrolo[1,2-b]pyridazin-7-yl)-N-(2-fluoro-3-hydroxy-3-methylbutyl)-4-((4-((2-oxopyridin-1(2H)-yl)methyl)phenyl)amino)nicotinamide], the EC50 in the assay on TNFα was determined as 11 nM. This compound came in with an IC50 against IRAK4 enzyme of less than 1 nM.

For the compound `COC(=O)NCCCC(C)(C)Nc1cc(-c2ccc3cc(C#N)cnn23)ncc1C(=O)NC[C@@H](F)C(C)(C)O` [Example 720, (R)-methyl (4-((2-(3-cyano-pyrrolo[1,2-b]pyridazin-7-yl)-5-((2-fluoro-3-hydroxy-3-methylbutyl)carbamoyl)pyridin-4-yl)amino)-4-methylpentyl)carbamate], in the assay on TNFα, the EC50 worked out at 243 nM. Also, the IC50 against IRAK4 enzyme amounted to 2 nM.

`COC(=O)NCCC(C)(C)Nc1cc(-c2ccc3cc(C#N)cnn23)ncc1C(=O)NC[C@@H](F)C(C)(C)O` [Example 721, (R)-methyl (3-((2-(3-cyano-pyrrolo[1,2-b]pyridazin-7-yl)-5-((2-fluoro-3-hydroxy-3-methylbutyl)carbamoyl)pyridin-4-yl)amino)-3-methylbutyl)carbamate]: the EC50 with TNFα was 87 nM. The half-inhibitory concentration (IC50) at IRAK4 enzyme was found to be 1 nM.

As for `COC(=O)N1C[C@@H]2[C@H](C1)[C@H]2Nc1cc(-c2ccc3cc(C#N)cnn23)ncc1C(=O)NC[C@@H](F)C(C)(C)O` [Example 722, (1R,5S,6s)-methyl 6-((2-(3-cyanopyrrolo[1,2-b]pyridazin-7-yl)-5-(((R)-2-fluoro-3-hydroxy-3-methyl-butyl)carbamoyl)pyridin-4-yl)amino)-3-aza-bicyclo[3.1.0]hexane-3-carboxylate], the EC50 with TNFα was determined as 35 nM. For the same compound, at IRAK4 enzyme, the half-inhibitory concentration (IC50) was less than 1 nM.

For the compound `CC(C)(O)[C@H](F)CNC(=O)c1cnc(-c2ccc3cc(C#N)cnn23)cc1N[C@H]1CC[C@H](N2CCC(F)(F)C2)CC1` [Example 723, 6-(3-cyanopyrrolo[1,2-b]pyridazin-7-yl)-4-(((1r,4R)-4-(3,3-difluoropyrrolidin-1-yl)cyclohexyl)amino)-N-((R)-2-fluoro-3-hydroxy-3-methylbutyl)nicotinamide], the EC50 with TNFα was 793 nM. The same compound registered an IC50 against IRAK4 enzyme of 7 nM.

Turning to `CC(C)(O)[C@H](F)CNC(=O)c1cnc(-c2ccc3cc(C#N)cnn23)cc1N[C@H]1CC[C@@H](N2CCC(F)(F)C2)CC1` [Example 724, 6-(3-cyanopyrrolo[1,2-b]pyridazin-7-yl)-4-(((1s,4S)-4-(3,3-difluoropyrrolidin-1-yl)cyclohexyl)amino)-N-((R)-2-fluoro-3-hydroxy-3-methylbutyl)nicotinamide], the EC50 with TNFα was 59 nM. In addition, the IC50 at IRAK4 enzyme is less than 1 nM.

For the compound `CNC(=O)OC[C@H]1C[C@H](Nc2cc(-c3ccc4cc(C#N)cnn34)ncc2C(=O)NC[C@@H](F)C(C)(C)O)C1` [Example 725], the EC50 with TNFα was 23 nM. On IRAK4 enzyme, the IC50 is less than 1 nM.

On to `COC(=O)NC(C)(C)CCCNc1cc(-c2ccc3cc(C#N)cnn23)ncc1C(=O)NC[C@@H](F)C(C)(C)O` [Example 726, (R)-methyl (5-((2-(3-cyanopyrrolo[1,2-b]pyridazin-7-yl)-5-((2-fluoro-3-hydroxy-3-methylbutyl)carbamoyl)pyridin-4-yl)amino)-2-methylpentan-2-yl) carbamate], for which the EC50 in the assay on TNFα amounted to 169 nM. Further, the IC50 against IRAK4 enzyme came to 4 nM.

Turning to `COC(=O)NC(C)(C)CCNc1cc(-c2ccc3cc(C#N)cnn23)ncc1C(=O)NC[C@@H](F)C(C)(C)O` [Example 727, (R)-methyl (4-((2-(3-cyanopyrrolo[1,2-b]pyridazin-7-yl)-5-((2-fluoro-3-hydroxy-3-methylbutyl)carbamoyl)pyridin-4-yl)amino)-2-methylbutan-2-yl)carbamate], the EC50 in the assay on TNFα amounted to 203 nM. For the same compound, on IRAK4 enzyme, half-maximal inhibition (IC50) was put at 3 nM.

As for `CC(C)(O)[C@H](F)CNC(=O)c1cnc(-c2ccc3cc(C#N)cnn23)cc1N[C@H]1C[C@H](CNC(=O)OCC(F)F)C1` [Example 728, 2,2-difluoroethyl (((1R,3r)-3-((2-(3-cyanopyrrolo[1,2-b]pyridazin-7-yl)-5-(((R)-2-fluoro-3-hydroxy-3-methylbutyl)carbamoyl)pyridin-4-yl)amino)cyclo-butyl)methyl)carbamate], the EC50 in the assay with TNFα was 4 nM. The compound also came in with an IC50 against IRAK4 enzyme of less than 1 nM.

For the compound `CC(C)(O)[C@H](F)CNC(=O)c1cnc(-c2ccc3cc(C#N)cnn23)cc1N[C@H]1C[C@H](Cn2ccccc2=O)C1` [Example 729, 6-(3-cyanopyrrolo[1,2-b]pyridazin-7-yl)-N-((R)-2-fluoro-3-hydroxy-3-methylbutyl)-4-(((1r,3R)-3-((2-oxopyridin-1(2H)-yl)methyl)cyclobutyl)amino)nicotinamide], the EC50 in the assay on TNFα was determined as 58 nM. The compound also returned an IC50 on IRAK4 enzyme of 1 nM.

On to `CC(C)(O)[C@H](F)CNC(=O)c1cnc(-c2ccc3cc(C#N)cnn23)cc1N[C@H]1C[C@@H](CO)C1` [Example 730], for which the EC50 in the assay on TNFα is 40 nM. At IRAK4 enzyme, this compound returned an IC50 of less than 1 nM.

Take `COC(=O)N[C@H]1C[C@@H](CNC(=O)c2cnc(-c3ccc4cc(C#N)cnn34)cc2NC23CCC(O)(CC2)CC3)C1` [Example 731, methyl ((1s,3s)-3-((6-(3-cyanopyrrolo[1,2-b]pyridazin-7-yl)-4-((4-hydroxybicyclo[2.2.2]octan-1-yl)amino)nicotin-amido)methyl)cyclobutyl) carbamate]: in the assay with TNFα, the EC50 came out at 59 nM. The compound also showed a half-inhibitory concentration (IC50) against IRAK4 enzyme of less than 1 nM.

Take `N#Cc1cnn2c(-c3cc(NC45CCC(O)(CC4)CC5)c(C(=O)NC[C@H]4C[C@@H](NC(=O)C5CC5)C4)cn3)ccc2c1` [Example 732, 6-(3-cyanopyrrolo[1,2-b]pyridazin-7-yl)-N-(((1s,3s)-3-(cyclopropane-carboxamido)cyclobutyl)methyl)-4-((4-hydroxy-bicyclo[2.2.2]octan-1-yl)amino)nicotinamide]: the EC50 in the assay with TNFα stood at 89 nM. At IRAK4 enzyme, this compound had an IC50 of 1 nM.

Take `COC(=O)N[C@H]1C[C@H](CNC(=O)c2cnc(-c3ccc4cc(C#N)cnn34)cc2NC23CCC(O)(CC2)CC3)C1` [Example 733, methyl ((1r,3r)-3-((6-(3-cyanopyrrolo[1,2-b]pyridazin-7-yl)-4-((4-hydroxybicyclo[2.2.2]octan-1-yl)amino)nicotin-amido)methyl)cyclobutyl) carbamate]: in the assay with TNFα, the concentration for a half-maximal effect (EC50) is 248 nM. The compound also registered an IC50 against IRAK4 enzyme of 2 nM.

`CN(C)C(=O)OC[C@H]1C[C@H](Nc2cc(-c3ccc4cc(C#N)cnn34)ncc2C(=O)NC[C@@H](F)C(C)(C)O)C1` [Example 734, ((1R,3r)-3-((2-(3-cyanopyrrolo[1,2-b]pyridazin-7-yl)-5-(((R)-2-fluoro-3-hydroxy-3-methylbutyl)carbamoyl)pyridin-4-yl)amino)cyclo-butyl)methyldimethyl-carbamate]: the EC50 with TNFα turned out to be 29 nM. For the same compound, at IRAK4 enzyme, the IC50 was less than 1 nM.

Broadly, the EC50 is the concentration at which the effect is half-maximal. One may read the IC50 as the concentration that gives 50% inhibition. A low value points to inhibition by little substance.
